{
  "source": "patent US20240261302A1",
  "about": "“METHODS OF TREATING NEURODEGENERATIVE DISEASES OR CONDITIONS” (FloraScience Inc., priority 2023, published 2024)",
  "key": {"[1]": {"conditions": "cited from earlier work"}, "[2]": {"test_system": "HT22 mt-GFP/mCherry-Parkin cells", "test": "Cell viability after RSL3 with/without FCCP (CyQUANT DNA-based assay, fluorescence microscopy), mt-GFP/mCherry-Parkin cells", "parameters": "species or system mouse"}, "[3]": {"test_system": "HT22 cells", "test": "Immunoblotting (Western blots) of protein levels", "assay_type": "cell-based, mouse", "method": "Cell Protein Extraction. HT22 cells were seeded onto 10 cm dishes at a density of 400,000 cells/dish in DMEM supplemented with 10% FBS and 1% antibiotics, and then exposed to the desired treatments. For total protein extracts, HT22 cells were washed with ice-cold phosphate buffered saline (PBS) and lysed with cell extraction buffer containing 10 mM Tris, pH 7.4, 100 mM NaCl, 1 mM EDTA, 1 mM EGTA, 1 mM NaF, 20 mM Na4P2O7, 2 mM Na3VO4, 1% Triton X-100, 10% glycerol, 0.1% sodium dodecyl sulfate (SDS), 0.5% sodium deoxycholate, a protease inhibitor cocktail, and a phosphatase inhibitor cocktail followed by centrifugation (14000 g) for 30 min at 4° C. For nuclear extracts, HT22 cells were washed with ice-cold PBS, incubated with a nuclear fractionation buffer containing 10 mM HEPES, pH 7.9, 10 mM KCl, 0.1 mM EDTA, 0.1 mM EGTA, 1 mM DTT, 1 mM Na3VO4, a protease inhibitor cocktail, and a phosphatase inhibitor cocktail on ice for 15 min, then Nonidet P-40 at a final concentration of 0.6% was added to the buffer. Cells were vortexed, and the nuclei pelleted by centrifugation (1000 g) for 10 min at 4° C. Nuclear proteins were extracted by sonication of the nuclear pellet in nuclear fractionation buffer followed by centrifugation (14000 g) for 30 min at 4° C. The resulting supernatants of total/nuclear protein extracts were stored at −80° C. until analysis. Concentrations of the harvested proteins were determined by the BCA protein assay.\nImmunoblotting. Western blots were carried out as follows. Laemmli sample buffer with 2% β-mercaptoethanol was added to the samples and then boiled for 5 min prior to SDS-PAGE. Equal amounts of cellular protein for each sample (10 μg per lane) were resolved by 4-12% gradient Criterion XT Precast Bis-Tris Gels (Bio-Rad, Hercules, CA) and transferred onto PVDF membranes with a Trans-Blot Turbo System (Bio-Rad, Hercules, CA). The membranes were blocked with 5% skim milk in TBST (20 mM Tris buffer, pH 7.5, 0.5 M NaCl, 0.1% Tween 20) for 1 hr at room temperature and incubated overnight at 4° C. with the diluted primary antibody in 5% BSA in TBST. After washes with TBST, the membranes were incubated with horseradish peroxidase-conjugated goat anti-rabbit or anti-mouse secondary antibodies (Bio-Rad, Hercules, CA) diluted 1:5000 in 5% skim milk in TBST. For all primary antibodies, the same membrane was re-probed for β-actin or an antiserum reacting with the total protein. After additional washing, protein bands were detected using the SuperSignal West Pico PLUS Chemiluminescent Substrate, and visualized with a ChemiDoc MP Imaging System (Bio-Rad, Hercules, CA). Band density was quantified densitometrically with Image Lab software (Bio-Rad, Hercules, CA). Relative protein expression was normalized to ß-actin band density. Each Western blot was performed three to six times with independent protein samples (n=3−6)."}, "[4]": {"test": "Cell-free, liposome-based assay of lipid peroxidation (STY-BODIPY)", "assay_type": "biochemical", "conditions": "test compounds 10 μM", "method": "For the cell-free, liposome-based assay, STY-BODIPY (1.5 μM) and liposomes of egg-PC (1 mM) (Avanti Polar Lipids Inc, Cat #840051P, AL) in TBS (pH 7.4) were added to an opaque 96-well plate. This was followed by the addition of test compounds (10 μM). The plate was incubated for 30 min at 37° C. and then vigorously mixed for 5 min. The autoxidation was initiated by the addition of V-70 (0.5 mM) (Fujifilm Wako, Cat #001-70078, Japan), followed by additional mixing for 5 min. Data were acquired at Ex/Em=488/518 nm every 15 min at 37° C. on a SpectraMax M5 microplate reader. Data were transformed into [ox-STY-BODIPY] by taking the raw fluorescent values of the saturated curve of control DMSO and dividing them by the initial concentration of reduced STY-BODIPY ([…]). Samples were analyzed in quadruplicate in four independent experiments (n=4)."}, "[5]": {"test_system": "HT22 cells", "test": "Cellular Lipid Peroxidation Measurement (C11-BODIPY)", "assay_type": "cell-based, mouse", "method": "Lipid Peroxidation MeasurementsHT22 cells were seeded onto 96-well black walled plates at a density of 3,000 cells/well in DMEM supplemented with 10% FBS and 1% antibiotics. After the desired treatments, cells were labeled with 2.5 μM C11-BODIPY 581/591 (oxidized form Ex/Em=488/520 nm) at 37° C. for 2 hr. Experiments were performed according to the manufacturer's instructions. Fluorescence was measured on a SpectraMax M5 microplate reader. Data were normalized for total protein/well. Each condition was analyzed in twelve wells per independent experiment (n=12). Results were presented as the percentage of the controls with vehicle alone. Results were verified by live-cell imaging under a fluorescence microscope."}},
  "note": "“Also recorded” adds a separate entry of the source.",
  "data": [
    {"smiles": "CCCCCc1cc(O)c2c(c1)OC(C)(C)c1ccc(C)cc1-2", "note": "[CBN, 6,6,9-Trimethyl-3-pentyl-benzo[c]chromen-1-ol]", "values": [
      {"measurement": "bioavailability", "setting": "[1]; after oral or inhaled administration", "result": "10 to 40", "unit": "%"},
      {"measurement": "brain penetrance", "setting": "[1]; animals and humans", "result": "good brain penetrance"},
      {"measurement": "metabolic stability compared to THC", "setting": "[1]; human, in vivo", "result": "metabolically more stable"},
      {"measurement": "protection against RSL3-induced cell death, no FCCP pretreatment", "setting": "[2]; 16 hr", "result": "strong and equivalent protection"},
      {"measurement": "protection against RSL3 after FCCP pretreatment (mitochondria-depleted cells)", "setting": "[2]; FCCP 5 μM 24 hr, then 16 hr", "result": "failed to protect; also recorded: did not protect"},
      {"measurement": "cell numbers after FCCP pretreatment, co-treatment with compound", "setting": "[2]; FCCP 24 hr, CBN additional 16 hr", "result": "did not further change the cell numbers"},
      {"measurement": "DRP1 and MFF levels, co-treatment with RSL3", "setting": "[3]", "result": "restored DRP1 levels but not MFF levels"},
      {"measurement": "MFF and DRP1 expression, compound alone", "setting": "[3]", "result": "significantly enhanced the expression of MFF but not DRP1"},
      {"measurement": "OPA1 and MFN2 expression, co-treatment with RSL3", "setting": "[3]", "result": "enhanced the expression of OPA1 but not MFN2"},
      {"measurement": "PGC-1α and TFAM levels, compound alone", "setting": "[3]", "result": "no apparent effects"},
      {"measurement": "RSL3-induced decrease of SIRT1, pAMPK/AMPK, PGC-1α, NRF1, TFAM", "setting": "[3]", "result": "prevented"},
      {"measurement": "protein expression of OXPHOS complexes I, II, III and V, compound alone", "setting": "[3]", "result": "did not exert obvious effects"},
      {"measurement": "protein expression of SIRT1, pAMPK(Thr172)/AMPK and NRF1, compound alone", "setting": "[3]", "result": "upregulated"},
      {"measurement": "RSL3-induced upregulation of OXPHOS complexes", "setting": "[3]; 50 nM RSL3", "result": "inhibited"},
      {"measurement": "effect on ATF4 with RSL3", "setting": "[3]; 5 μM CBN, 50 nM RSL3", "result": "not significant"},
      {"measurement": "protein levels of Nrf2, HO-1, SOD2 and GPX4 with RSL3", "setting": "[3]; 5 μM CBN, 50 nM RSL3", "result": "at levels similar to the control cells"},
      {"measurement": "protein levels of Nrf2, HO-1, SOD2 and GPX4, compound alone", "setting": "[3]; 5 μM, 16 h", "result": "upregulation"},
      {"measurement": "MCU expression, compound alone", "setting": "[3]; 5 μM, 16 hr", "result": "reduced basal MCU expression"},
      {"measurement": "RSL3-induced HSP60 upregulation", "setting": "[3]; 16 h", "result": "suppressed"},
      {"measurement": "VDAC level, compound alone", "setting": "[3]; 16 h", "result": "upregulated"},
      {"measurement": "OPA1 and MFN2 levels, compound alone", "setting": "[3]; 16 hr", "result": "upregulated"},
      {"measurement": "RSL3-induced MCU upregulation", "setting": "[3]; p<0.0001", "result": "prevented this increase"},
      {"measurement": "RSL3-induced VDAC decrease", "setting": "[3]; p<0.0001", "result": "prevented"},
      {"measurement": "protein level of OXPHOS complex IV, compound alone", "setting": "[3]; p<0.0001", "result": "reduced"},
      {"measurement": "inhibition of lipid peroxidation, cell-free", "setting": "[4]", "result": "showed no inhibition"},
      {"measurement": "RSL3-induced cellular lipid peroxidation", "setting": "[5]; 50 nM RSL3, 16 hr, p<0.0001", "result": "effectively suppressed"},
      {"measurement": "basal cellular lipid peroxidation, compound alone", "setting": "[5]; CBN 5 μM, ferrostatin 10 μM, 16 hr", "result": "neither CBN (5 μM) nor ferrostatin (10 μM) alone changed basal levels of lipid peroxidation"}
    ]}
  ]
}
